Measurements as given in patent US6235731A, “Fused imidazopyridine derivatives as antihyperlipidemic agents” (Takeda Chemical Industries, Ltd., priority 1996, dated 2001).
Counter-ions that a name gives are not always drawn. Like-named read-outs stand apart in the source and are kept apart here.

How the values were obtained:
HepG2 cells = test: Increase in LDL-binding to HepG2 cells; format: cell-based; conditions: 10 μM test compound, 20 hours, specific human [125I]LDL binding, normalized by protein, read-out: LDL binding (% of control)
Experimental: Increase in LDL-binding to HepG2 cells LDL-binding was measured according to the method of J. L. Goldstein. HepG2 cells were purchased from ATCC (American type culture collection) and seeded in 6-well plate with collagen coating (Sumitomo Bakelite), and cultured in Eagle's minimum essential medium (MEM) containing 10%-fetal bovine serum at 37° C. for 4 days. […] After washing with phosphate buffered saline cells were incubated with MEM containing 25 mM-HEPES and 1%-bovine serum albumin (fatty acid free) in the presence of human [^125 I]LDL (4 μg/ml) at 6° C. for 2 hours. After washing cells bound [^125 I]LDL was dissociated with dextran sulfate and the radioactivity was measured (total binding). [^125 I]LDL binding to cells was also measured in the presence of LDL (300 μg/ml) as a non-specific binding (NSB). Specific [^125 I]LDL-binding was calculated by subtracting NSB from total binding and was normalized by protein content measured by the method of lowry. Data was expressed as percentage of the control.

Golden Syrian hamsters = test: Cholesterol lowering activity in Golden hamster; format: in vivo, Golden Syrian hamster; conditions: Mesocricetus auratus, po, 96 h, 20 mg/kg/d orally, once daily for 4 days
Experimental: Cholesterol lowering activity in Golden hamster Male Golden Syrian hamsters (110-130 g) were maintained freely on water and a laboratory diet (CE-2, Clea Japan Inc., Tokyo). […] Blood was taken from orbital sinus and plasma total cholesterol and triglyceride were measured an automatic analyzer (Hitachi 7070, Hitachi Ltd., Tokyo) using commercial kits (Wako Pure Chemical Industries, Osaka), and plasma HDL-cholesterol using a commercial kit (Kyowa Medex Co., Ltd., Tokyo) before and after the treatment of compound. Non-HDL cholesterol was calculated by subtracting HDL-cholesterol from total cholesterol. |Non-HDL-C (non-HDL-cholesterol): [total cholesterol]-[HDL-cholesterol] |TG: triglyceride

[1] = plasma triglyceride, read-out: TG (% of control)
[2] = plasma, [total cholesterol]-[HDL-cholesterol], read-out: Non-HDL-C (% of control)

In the case of `O=C(NCC1CCN(C[C@@H]2COc3ccccc3O2)CC1)C1=Cc2cnc3cccc(n23)S1` [Example 1, (R)-N-[1-(1,4-benzodioxan-2-ylmethyl)piperidin-4-ylmethyl]-5-thia-1,8b-diazaacenaphthylene-4-carboxamide dihydrochloride], the activity at 10 µM (HepG2 cells) is reported as 203%, the response vs control in vivo at 20 mg/kg (Golden Syrian hamsters; [1]) is reported as 78.4% and the response vs control in vivo at 20 mg/kg (Golden Syrian hamsters; [2]) is reported as 68.6%.

In the case of `O=C(NCC1CCN(C[C@H]2COc3ccccc3O2)CC1)C1=Cc2cnc3cccc(n23)S1` [Example 2, (S)-N-[1-(1,4-benzodioxan-2-ylmethyl)piperidin-4-ylmethyl]-5-thia-1,8b-diazaacenaphthylene-4-carboxamide], the activity at 10 µM (HepG2 cells) is reported as 172%, the response vs control in vivo at 20 mg/kg (Golden Syrian hamsters; [1]) is reported as 102% and the response vs control in vivo at 20 mg/kg (Golden Syrian hamsters; [2]) is reported as 65.1%.

`O=C(NCC1CCN(CC2COc3ccccc3O2)CC1)C1=Cc2cnc3cccc(n23)S1` (centres unmarked) [Example 3, N-[1-(1,4-benzodioxan-2-ylmethyl)piperidin-4-ylmethyl]-5-thia-1,8b-diazaacenaphthylene-4-carboxamide dihydrochloride] was tested, and the activity at 10 µM (HepG2 cells) was 194%, the response vs control in vivo at 20 mg/kg (Golden Syrian hamsters; [1]) was 91.3% and the response vs control in vivo at 20 mg/kg (Golden Syrian hamsters; [2]) was 69.5%.

Molecule `O=C(C=CC1=Cc2cnc3cccc(n23)S1)NCC1CCN(CCCc2ccccc2)CC1` [Example 9, N-[1-(3-phenylpropan-1-yl)piperidin-4-ylmethyl]-3-(5-thia-1,8b-diazaacenaphthylen-4-yl)acrylamide dihydrochloride] has an activity at 10 µM (HepG2 cells) of 247%, a response vs control in vivo at 20 mg/kg (Golden Syrian hamsters; [1]) of 67% and a response vs control in vivo at 20 mg/kg (Golden Syrian hamsters; [2]) of 62.3%.

For `O=C(C=CC1=Cc2cnc3cccc(n23)S1)NC1CCN(CCCc2ccccc2)CC1` [Example 10, N-[1-(3-phenylpropan-1-yl)piperidin-4-yl]-3-(5-thia-1,8b-diazaacenaphthylen-4-yl)acrylamide dihydrochloride], the activity at 10 µM (HepG2 cells) was 169%, the response vs control in vivo at 20 mg/kg (Golden Syrian hamsters; [1]) was 70.8% and the response vs control in vivo at 20 mg/kg (Golden Syrian hamsters; [2]) was 61%.

Molecule `O=C(NCCCCN1CCC(c2ccccc2)CC1)C1=Cc2cnc3cccc(n23)S1` [Example 26, N-[4-(4-phenylpiperidin-1-yl)butan-1-yl]-5-thia-1,8b-diazaacenaphthylene-4-carboxamide Dihydrochloride] has an activity at 10 µM (HepG2 cells) of 189%, a response vs control in vivo at 20 mg/kg (Golden Syrian hamsters; [1]) of 82% and a response vs control in vivo at 20 mg/kg (Golden Syrian hamsters; [2]) of 66.4%.

For `O=C(NCCCN1CCC(c2ccccc2)CC1)C1=Cc2cnc3cccc(n23)S1` [Example 27, N-[3-(4-phenylpiperidin-1-yl)propan-1-yl]-5-thia-1,8b-diazaacenaphthylene-4-carboxamide Dihydrochloride], the activity at 10 µM (HepG2 cells) was 168%, the response vs control in vivo at 20 mg/kg (Golden Syrian hamsters; [1]) was 83.9% and the response vs control in vivo at 20 mg/kg (Golden Syrian hamsters; [2]) was 73.9%.

`O=C(NCCCCN1CCC(Cc2ccccc2)CC1)C1=Cc2cnc3cccc(n23)S1` [Example 28, N-[4-(4-benzylpiperidin-1-yl)butan-1-yl]-5-thia-1,8b-diazaacenaphthylene-4-carboxamide Dihydrochloride] gave an activity at 10 µM (HepG2 cells) of 194%, a response vs control in vivo at 20 mg/kg (Golden Syrian hamsters; [1]) of 61.3% and a response vs control in vivo at 20 mg/kg (Golden Syrian hamsters; [2]) of 62.9%.

`O=C(NCCCN1CCC(Cc2ccccc2)CC1)C1=Cc2cnc3cccc(n23)S1` [Example 29, N-[3-(4-benzylpiperidin-1-yl)propan-1-yl]-5-thia-1,8b-diazaacenaphthylene-4-carboxamide Dihydrochloride] gave a response vs control in vivo at 20 mg/kg (Golden Syrian hamsters; [1]) of 73.9% and a response vs control in vivo at 20 mg/kg (Golden Syrian hamsters; [2]) of 68.1%.

With `O=C(NCCCCN1CCN(Cc2ccccc2)CC1)C1=Cc2cnc3cccc(n23)S1` [Example 32, N-[4-(4-benzyl-1-piperazinyl)butan-1-yl]-5-thia-1,8b-diazaacenaphthylene-4-carboxamide Trihydrochloride] the response vs control in vivo at 20 mg/kg (Golden Syrian hamsters; [1]) was 76.5% and the response vs control in vivo at 20 mg/kg (Golden Syrian hamsters; [2]) was 76.6%.

Molecule `O=C(NCCCN1CCN(Cc2ccccc2)CC1)C1=Cc2cnc3cccc(n23)S1` [Example 33, N-[3-(4-benzyl-1-piperazinyl)propan-1-yl]-5-thia-1,8b-diazaacenaphthylene-4-carboxamide Trihydrochloride] has a response vs control in vivo at 20 mg/kg (Golden Syrian hamsters; [1]) of 85.6% and a response vs control in vivo at 20 mg/kg (Golden Syrian hamsters; [2]) of 77.1%.

For `O=C(NCCCCN1CCc2ccccc2C1)C1=Cc2cnc3cccc(n23)S1` [Example 34, N-[4-(1,2,3,4-tetrahydroisoquinolin-2-yl)butan-1-yl]-5-thia-1,8b-diazaacenaphthylene-4-carboxamide Dihydrochloride], the response vs control in vivo at 20 mg/kg (Golden Syrian hamsters; [1]) was 74.7% and the response vs control in vivo at 20 mg/kg (Golden Syrian hamsters; [2]) was 72.2%.

With `O=C(NC1CCN(CCCc2ccccc2)CC1)C1=Cc2cnc3cccc(n23)S1` [Example 36, N-[1-(3-phenylpropan-1-yl)piperidin-4-yl]-5-thia-1,8b-diazaacenaphthylene-4-carboxamide Dihydrochloride] the activity at 10 µM (HepG2 cells) was 218%, the response vs control in vivo at 20 mg/kg (Golden Syrian hamsters; [1]) was 74.7% and the response vs control in vivo at 20 mg/kg (Golden Syrian hamsters; [2]) was 61.9%.

`O=C(NC1CCN(CCCc2ccccc2Cl)CC1)C1=Cc2cnc3cccc(n23)S1` [Example 39, N-[1-[3-(2-chlorophenyl)propan-1-yl]piperidin-4-yl]-5-thia-1,8b-diazaacenaphthylene-4-carboxamide dihydrochloride] was tested, and the response vs control in vivo at 20 mg/kg (Golden Syrian hamsters; [1]) was 62.6% and the response vs control in vivo at 20 mg/kg (Golden Syrian hamsters; [2]) was 62.7%.

For `O=C(NCCCC1CCN(CCCc2ccccc2)CC1)C1=Cc2cnc3cccc(n23)S1` [Example 46, N-[3-(1-(3-phenylpropan-1-yl)piperidin-4-yl)propan-1-yl]-5-thia-1,8b-diazaacenaphthylene-4-carboxamide Dihydrochloride], the activity at 10 µM (HepG2 cells) was 166%, the response vs control in vivo at 20 mg/kg (Golden Syrian hamsters; [1]) was 72.4% and the response vs control in vivo at 20 mg/kg (Golden Syrian hamsters; [2]) was 69.6%.

For `O=C(C1=Cc2cnc3cccc(n23)S1)N(Cc1ccccc1)CC1CCN(CCCc2ccccc2)CC1` [Example 52, N-benzyl-N-[1-(3-phenylpropan-1-yl)piperidin-4-ylmethyl]-5-thia-1,8b-diazaacenaphthylene Dihydrochloride], the activity at 10 µM (HepG2 cells) was 183%.

Molecule `O=C(NCCN1CCN(CCCc2ccccc2)CC1)C1=Cc2cnc3cccc(n23)S1` [Example 58, N-[2-(4-(3-phenylpropan-1-yl)piperazin-1-yl)ethan-1-yl]-5-thia-1,8b-diazaacenaphthylene-4-carboxamide Trihydrochloride] has a response vs control in vivo at 20 mg/kg (Golden Syrian hamsters; [1]) of 71.2% and a response vs control in vivo at 20 mg/kg (Golden Syrian hamsters; [2]) of 74%.

`O=C(NCC1CCN(CCCc2ccccc2F)CC1)C1=Cc2cnc3cccc(n23)S1` [Example 67, N-[1-(3-(2-fluorophenyl)propan-1-yl)piperidin-4-ylmethyl]-5-thia-1,8b-diazaacenaphthylene-4-carboxamide Dihydrochloride] gave an activity at 10 µM (HepG2 cells) of 162%, a response vs control in vivo at 20 mg/kg (Golden Syrian hamsters; [1]) of 67.9% and a response vs control in vivo at 20 mg/kg (Golden Syrian hamsters; [2]) of 62%.

For `O=C(NCC1CCN(CCc2ccccc2F)CC1)C1=Cc2cnc3cccc(n23)S1` [Example 68, N-[1-(2-fluorophenethyl)piperidin-4-ylmethyl]-5-thia-1,8b-diazaacenaphthylene-4-carboxamide Dihydrochloride], the response vs control in vivo at 20 mg/kg (Golden Syrian hamsters; [1]) was 74.3% and the response vs control in vivo at 20 mg/kg (Golden Syrian hamsters; [2]) was 58.5%.

Molecule `O=C(NCC1CCN(CCc2ccc(F)cc2)CC1)C1=Cc2cnc3cccc(n23)S1` [Example 70, N-[1-(4-fluorophenethyl)piperidin-4-ylmethyl]-5-thia-1,8b-diazaacenaphthylene-4-carboxamide Dihydrochloride] has a response vs control in vivo at 20 mg/kg (Golden Syrian hamsters; [1]) of 71.2% and a response vs control in vivo at 20 mg/kg (Golden Syrian hamsters; [2]) of 47.9%.

`O=C(NCC1CCN(CCCc2cccc(F)c2)CC1)C1=Cc2cnc3cccc(n23)S1` [Example 74, N-[1-(3-(3-fluorophenyl)propan-1-yl)piperidin-4-ylmethyl]-5-thia-1,8b-diazaacenaphthylene-4-carboxamide Dihydrochloride] showed a response vs control in vivo at 20 mg/kg (Golden Syrian hamsters; [1]) of 67.9% and a response vs control in vivo at 20 mg/kg (Golden Syrian hamsters; [2]) of 73.5%.

Work on `O=C(NCC1CCN(CCCc2ccccc2Cl)CC1)C1=Cc2cnc3cccc(n23)S1` [Example 77, N-[1-(3-(2-chlorophenyl)propan-1-yl)piperidin-4-ylmethyl]-5-thia-1,8b-diazaacenaphthylene-4-carboxamide Dihydrochloride] yielded an activity at 10 µM (HepG2 cells) of 168%.

For `COc1ccccc1CCCN1CCC(CNC(=O)C2=Cc3cnc4cccc(n34)S2)CC1` [Example 80, N-[1-(3-(2-methoxyphenyl)propan-1-yl)piperidin-4-ylmethyl]-5-thia-1,8b-diazaacenaphthylene-4-carboxamide Dihydrochloride], the activity at 10 µM (HepG2 cells) was 248%.

For `O=C(NCC1CCN(CCCOc2ccc(F)cc2)CC1)C1=Cc2cnc3cccc(n23)S1` [Example 113, N-[1-(3-(4-fluorophenoxy)propan-1-yl)piperidin-4-ylmethyl]-5-thia-1,8b-diazaacenaphthylene-4-carboxamide Dihydrochloride], the activity at 10 µM (HepG2 cells) was 140%.

Work on `O=C(NCC1CCN(CCCOc2ccc(F)cc2F)CC1)C1=Cc2cnc3cccc(n23)S1` [Example 117, N-[1-(3-(2,4-difluorophenoxy)propan-1-yl)piperidin-4-ylmethyl]-5-thia-1,8b-diazaacenaphthylene-4-carboxamide Dihydrochloride] yielded an activity at 10 µM (HepG2 cells) of 137%.
